# Key:
# A549 cells [1] = experiment: Drug combination experiments, live cell counting; format: cell-based, human; conditions: 4 h
# Experimental: In drug combination experiments, cells were grown for 2 days in the absence or in the presence of 40 μM FTS and were then treated for 4 h with gemcitabine (100 or 200 nM), cisplatin (50 or 100 nM), doxorubicin (50 or 100 nM), or paclitaxel (2.5 or 5 nM). Live cells were counted after a further 3 days of incubation with or without FTS. Experiments were performed twice in quadruplicate. To determine whether A549 cells were resistant to apoptosis, an experiment to examine the survival of human lung cancer A549 cells after exposure to a chemotherapeutic agent in the presence of FTS was performed. Thus, to determine whether treatment with FTS can increase the sensitivity of A549 cells to cytotoxic drugs, A549 cells were incubated for 48 h with DMSO (control) or with 40 μM FTS, then for 4 h with gemcitabine, cisplatin, doxorubicin, or paclitaxel at the indicated concentrations. The cells were then washed and incubated for a further 72 h with DMSO or with 40 μM FTS. Live cells were collected and counted. The numbers of cells in the drug-treated cultures, expressed as percentages of the numbers in the vehicle-treated control, are shown in FIGS. 13A-13D. Values are means±SD. *P<0.05, **P<0.01, compared to vehicle-treated control.
# A549 cells [2] = experiment: A549-cell-implanted nude mouse model, tumor growth; format: in vivo, nude mice; conditions: gemcitabine alone 36 mg/kg i.p. every 4 days (FIG. 14D)
# Experimental: Nude mice (6 weeks old) were housed in barrier facilities on a 12-h light/dark cycle. Food and water were supplied ad libitum. On day zero, A549 or HTB-58 cells (5×10^6 cells in 0.1 ml PBS) were implanted subcutaneously (s.c.) just above the right femoral joint. After 5 or 11 days the mice were separated randomly into control groups that had received only the vehicle and FTS-treated groups. Daily FTS treatments were administered either intraperitoneally (i.p.) or orally. Tumor volumes or weights were determined as described in Barkan, B., Starinsky, S., Friedman, E., Stein, R., Kloog, Y., Clin Cancer Res 12:5533-42 (2006). Gemcitabine treatment (36 mg/kg, i.p.) was administered every 4 days.
# To determine whether FTS inhibited tumor growth in vivo, experiments were conducted using a nude mouse model. The lung cancer cells were implanted s.c. above the right femoral joint and the mice were then treated with FTS. In a first experiment, the effect of i.p. administration of FTS on tumor growth in A549 cells was assessed. Treatment was started 5 days after cell implantation, by which time the tumors were palpable. Tumor volumes were determined 24 days after implantation in two groups of mice (n=8) that had received daily i.p. administration of either the vehicle (control) or 10 mg/kg FTS.
# In an additional set of experiments, the A549-cell-implanted nude mouse model was used to examine the effect of orally administered FTS on tumor growth. First, cells were implanted as described above and daily oral treatment with FTS (50 mg/kg; n=6) or vehicle (n=5) was started either 11 days (FIG. 14C) or 6 days (FIG. 14D) after implantation. […] Next, the effects of orally administered FTS, alone or in combination with gemcitabine, on A549-cell tumor growth was examined (FIG. 14D). Six days after cell implantation, mice were divided into four groups (n=8 per group) and treated orally with vehicle alone (control), FTS alone (60 mg/kg), vehicle and gemcitabine (36 mg/kg, i.p. every 4 days), or FTS and gemcitabine. Treatments with gemcitabine began 1 week after FTS treatment was started.
SMILES,reduction in cell numbers (A549 cells [1]; cisplatin alone 50 nM),reduction in cell numbers (A549 cells [1]; cisplatin alone 100 nM),effect on tumor weight (A549 cells [2]),reduction in cell numbers (A549 cells [1]; gemcitabine alone 100 nM),reduction in cell numbers (A549 cells [1]; gemcitabine alone 200 nM)
"N.N.[Cl][Pt][Cl] [cisplatin, cis-diamminedichloroplatinum(II)]",11±11%,30±12.9%,,,
"Cl.Nc1ccn([C@@H]2O[C@H](CO)[C@@H](O)C2(F)F)c(=O)n1 [gemcitabine, 2′-deoxy-2′,2′-difluorocytidine monohydrochloride]",,,significant reduction in tumor weight,< 11%,< 11%

# Source: patent US8232253B2, “Treatment of lung cancer” (Ramot at Tel-Aviv University Ltd., priority 2006, dated 2012)
